Reference: patent US20090004185A1, “AMINO-SUBSTITUTED QUINAZOLINE DERIVATIVES AS INHIBITORS OF BETA-CATENIN/TCF-4 PATHWAY AND CANCER TREATMENT AGENTS” (WYETH, priority 2007, published 2009)

tested on: SV40-Luc; assay: SV40-Luc control luciferase reporter assay, SV 5A8 cell line (SV40-Luc and SV40-R-Luc), control for non-specific inhibitors; type: cell-based, human; conditions: Homo sapiens, SV5A8, 24 h, SV 5A8 cells derived from SW480; 24 hours of incubation with compound; ratio Firefly/Renilla luciferase
Description: Background cell line: SW480 colorectal carcinoma DNA constructs: […]
(§1) 2) SV40-Luc: SV40 binding site driving Firefly Luciferase in the pGL3 vector—as a control for non-specific inhibitors; and
(§2) 3) SV40-R-Luc: SV40 binding site driving Renilla Luciferase in the pGL3 vector—as an internal control for cell number and toxicity.
This screen uses 3 cell lines derived from SW480 and selected to contain the above luciferase reporters integrated into their chromosomes as follows:
SV 5A8—SV40-Luc and SV40-R-Luc
(§3) Cells: Tcf22C11 and SV5A8 were grown in the presence of 500 μg/ml G418 and Tcf 33.13 was grown in the presence of 500 μg/ml G418+125 μg/ml Zeocin to maintain the integrated reporters. The cells were trypsinized and plated at 1×10^4 cells/well in opaque 96 well plates.
(§4) Compounds: 20-24 hours after cell plating, compounds were added at titrated concentrations between 10 μg/ml and 10 μg/ml. The compounds were diluted as follows: The compounds were stored frozen in dimethyl sulfoxide (DMSO) at […]. Compounds were initially titrated in DMSO to make a 1000×DMSO stock solution. Compounds were then diluted 1:25 into media/DMSO (DMEM+10% FBS+9% DMSO). Using the Biomek Multimek, the diluted compounds were mixed well and immediately added to the plated cells in a 1:40 dilution. The final concentration of DMSO in the assay plates was 0.316% DMSO.
(§5) Assay Readout: The luciferase signal was detected using a luciferase detection kit from Promega. Until December 2003, Promega's Dual-Luciferase® Reporter (DLR™) Assay System was used to detect luciferase activity. Briefly, after 24 hours of incubation with compound, culture media was removed by aspiration and 20 ul of passive lysis buffer (Promega) per well was added. The plates were shaken for 15 min. Firefly substrate was then added and the resulting luminescence was immediately read on a CCD camera imaging device or a luminometer. After quantifying the firefly luminescence, the reaction was quenched, and the Renilla luciferase reaction was initiated simultaneously by adding Stop & Glo® Reagent to the same sample. Renilla luciferase was then quantified using the CCD camera or luminometer.
(§6) Promega's Dual-Glo™ Luciferase Assay System can be used for luciferase detection. It was similar to the DLR Assay, however, unlike the DLR which has to be read immediately due to decaying signal, the signal in the Dual-Glo™ Luciferase Assay was stable for up to 2 hours. Briefly, after 24 hours of incubation with compound, culture media was removed by aspiration and 75 ul of fresh medium was added. Add 75 ul of Dual-Glo Luciferase Reagent (Promega) to each well and mix by shaking for 10 minutes on a plate shaker. Then, measure the firefly luminescence on a CCD camera imaging device or a luminometer. After quantifying the firefly luminescence, add 75 ul of Dual-Glo Stop & Glo Reagent (Promega) to each well and mix for 10 minutes. Renilla luciferase was then quantified using the CCD camera or luminometer.
(§7) This assay was meant to confirm primary leads and determine IC50s. Compounds were tested at titrated dilutions. The raw data for this assay was reported in protocol 2463-B. Protocol 2463-C contains the IC50 calculations based on the raw data. The data calculations were done as follows:
(§8) The data was expressed as % of control for both Firefly and Renilla Luciferase. The ratio of FF/Renilla (F/R) was then calculated and averaged between duplicate plates. The data was then plotted using LSW Data Analysis in Microsoft Excel. IC50s were determined by plotting the data in the LSW Data Analysis program using model 33. The IC50s (nM) for all three cell lines were reported.

Structure (SMILES)	IC50
Cc1ccc2c(NCc3ccc(NC(=O)c4ccc(F)cc4)cc3)nc(N(C)C)nc2c1 [Example 199, N-[4-({[2-(dimethylamino)-7-methylquinazolin-4-yl]amino}methyl)phenyl]-4-fluorobenzamide]	> 2910 nM
CNc1nc(NCc2ccc(NC(=O)c3ccc(F)cc3)cc2)c2cccc(C)c2n1 [Example 190, 4-fluoro-N-[4-({[8-methyl-2-(methylamino)quinazolin-4-yl]amino}methyl)phenyl]benzamide]	> 3010 nM
CNc1nc(NCc2ccc(NC(=O)c3ccc(Cl)nc3)cc2)c2cccc(C)c2n1 [Example 183, 6-chloro-N-[4-({[8-methyl-2-(methylamino)quinazolin-4-yl]amino}methyl)phenyl]nicotinamide]	> 2890 nM
CNc1nc(NCc2ccc(NC(=O)c3ccc(-c4ccccc4)cc3)cc2)c2ccccc2n1 [Example 15, N-[4-({[2-(methylamino)quinazolin-4-yl]amino}methyl)phenyl]biphenyl-4-carboxamide]	> 5440 nM
CNc1nc(NCc2ccc(NC(=O)c3ccc(F)cc3)cc2)c2cc(C)ccc2n1 [Example 24, 4-fluoro-N-[4-({[6-methyl-2-(methylamino)quinazolin-4-yl]amino}methyl)phenyl]benzamide]	> 602 nM
CNc1nc(NCc2ccc(NC(=O)c3ccc(F)cc3)cc2)c2ccc(C)cc2n1 [Example 230, 4-fluoro-N-[4-({[7-methyl-2-(methylamino)quinazolin-4-yl]amino}methyl)phenyl]benzamide]	> 752 nM
Cc1ccc2c(NCc3ccc(NC(=O)c4ccc(F)cc4)cc3)nc(N3CCOCC3)nc2c1 [Example 207, 4-fluoro-N-(4-{[(7-methyl-2-morpholin-4-ylquinazolin-4-yl)amino]methyl}phenyl)benzamide]	> 10600 nM
CNc1nc(NCc2ccc(NC(=O)c3ccc(F)cc3)cc2)c2c(C)cccc2n1 [Example 192, 4-fluoro-N-[4-({[5-methyl-2-(methylamino)quinazolin-4-yl]amino}methyl)phenyl]benzamide]	> 3010 nM
CNc1nc(NCc2ccc(NC(=O)c3ccc(Cl)nc3)cc2)c2ccccc2n1 [Example 3, 6-chloro-N-[4-({[2-(methylamino)quinazolin-4-yl]amino}methyl)phenyl]nicotinamide]	> 2980 nM
CNc1nc(NCc2ccc(NC(=O)c3ccc(Cl)cc3)cc2)c2cc(C)ccc2n1 [Example 18, 4-chloro-N-[4-({[6-methyl-2-(methylamino)quinazolin-4-yl]amino}methyl)phenyl]benzamide]	> 5790 nM
CN(C)c1nc(NCc2ccc(NC(=O)c3ccc(F)cc3)cc2)c2ccc(CO)cc2n1 [Example 93, N-[4-({[2-(dimethylamino)-7-(hydroxymethyl)quinazolin-4-yl]amino}methyl)phenyl]-4-fluorobenzamide]	> 10400 nM
CNc1nc(NCc2ccc(NC(=O)c3ccc(Cl)nc3)cc2)c2ccc(C)cc2n1 [Example 264, 6-chloro-N-[4-({[7-methyl-2-(methylamino)quinazolin-4-yl]amino}methyl)phenyl]nicotinamide]	> 1440 nM
Cc1ccc2c(NCc3ccc(NC(=O)c4ccc(F)cc4)cc3)nc(N3CCN[C@H](C)C3)nc2c1 [Example 225, 4-fluoro-N-{4-[({7-methyl-2-[(3R)-3-methylpiperazin-1-yl]quinazolin-4-yl}amino)methyl]phenyl}benzamide]	> 2580 nM
CNc1nc(NCc2ccc(NC(=O)c3ccc(Cl)cc3)cc2)c2c(C)cccc2n1 [Example 193, 4-chloro-N-[4-({[5-methyl-2-(methylamino)quinazolin-4-yl]amino}methyl)phenyl]benzamide]	> 2890 nM
CNc1nc(NCc2ccc(NC(=O)c3ccc(C)cc3)cc2)c2ccccc2n1 [Example 12, 4-methyl-N-[4-({[2-(methylamino)quinazolin-4-yl]amino}methyl)phenyl]benzamide]	> 25200 nM
Cc1ccc2c(NCc3ccc(NC(=O)c4ccc(F)cc4)cc3)nc(N3CCNCC3)nc2c1 [Example 208, 4-fluoro-N-(4-{[(7-methyl-2-piperazin-1-ylquinazolin-4-yl)amino]methyl}phenyl)benzamide]	> 2660 nM
C=Cc1ccc2c(NCc3ccc(NC(=O)c4ccc(F)cc4)cc3)nc(N(C)C)nc2c1 [Example 87, N-[4-({[2-(dimethylamino)-7-vinylquinazolin-4-yl]amino}methyl)phenyl]-4-fluorobenzamide]	> 20900 nM
CN(C)c1nc(NCc2ccc(NC(=O)c3ccc(F)cc3)cc2)c2ccc(I)cc2n1 [Example 86, N-[4-({[2-(dimethylamino)-7-iodoquinazolin-4-yl]amino}methyl)phenyl]-4-fluorobenzamide]	> 18500 nM
CNc1nc(NCc2ccc(NC(=O)c3ccc(Cl)cc3)cc2)c2ccccc2n1 [Example 10, 4-chloro-N-[4-({[2-(methylamino)quinazolin-4-yl]amino}methyl)phenyl]benzamide]	2190 nM
CC(O)c1ccc2c(NCc3ccc(NC(=O)c4ccc(F)cc4)cc3)nc(N(C)C)nc2c1 (stereo not drawn) [Example 95, N-[4-({[2-(dimethylamino)-7-(1-hydroxyethyl)quinazolin-4-yl]amino}methyl)phenyl]-4-fluorobenzamide]	> 20200 nM
Cc1ccc2c(NCc3ccc(NC(=O)c4ccc(F)cc4)cc3)nc(N3CCC3)nc2c1 [Example 202, N-(4-{[(2-azetidin-1-yl-7-methylquinazolin-4-yl)amino]methyl}phenyl)-4-fluorobenzamide]	> 2830 nM
CN(C)Cc1ccc2c(NCc3ccc(NC(=O)c4ccc(F)cc4)cc3)nc(N(C)C)nc2c1 [Example 91, N-{4-[({2-(dimethylamino)-7-[(dimethylamino)methyl]quinazolin-4-yl}amino)methyl]phenyl}-4-fluorobenzamide]	> 9170 nM
CN(C)c1nc(NCc2ccc(NC(=O)c3ccc(F)cc3)cc2)c2ccc(C#N)cc2n1 [Example 89, N-[4-({[7-cyano-2-(dimethylamino)quinazolin-4-yl]amino}methyl)phenyl]-4-fluorobenzamide]	> 21000 nM

tested on: β-catenin/Tcf-4; assay: cells; type: cell-based; conditions: Homo sapiens, SW480, 24 h, Tcf 33.13 cells derived from SW480; 24 hours of incubation with compound; ratio Firefly/Renilla luciferase
Description: Background cell line: SW480 colorectal carcinoma DNA constructs:
1) Tcf-4-Luc: Tcf-4 binding sites driving Firefly Luciferase in the pGL3 vector—to measure the activity of β-catenin/Tcf-4;
as §1, §2
This screen uses 3 cell lines derived from SW480 and selected to contain the above luciferase reporters integrated into their chromosomes as follows: […]
as §3
as §4, with “The” for “Compounds: 20-24 hours after cell plating, compounds were added at titrated concentrations between 10 μg/ml and 10 μg/ml. The”
as §5
as §6, with “It was similar to the DLR Assay, however, unlike the DLR which has to be read immediately due to decaying signal, the signal in the Dual-Glo™ Luciferase Assay was stable for up to 2 hours.” left out
as §7, §8

Structure (SMILES)	IC50
CNc1nc(NCc2ccc(NC(=O)c3cc(F)ccc3C)cc2)c2ccccc2n1 [Example 1, 5-fluoro-2-methyl-N-[4-({[2-(methylamino)quinazolin-4-yl]amino}methyl)phenyl]benzamide]	> 6020 nM
CNc1nc(NCc2ccc(NC(=O)COCc3ccccc3)cc2)c2ccccc2n1 [Example 2, 2-(benzyloxy)-N-[4-({[2-(methylamino)quinazolin-4-yl]amino}methyl)phenyl]acetamide]	> 2920 nM

same assay, conditions: Homo sapiens, Tcf22C11, 24 h, Tcf 22C11 cells derived from SW480; 24 hours of incubation with compound; ratio Firefly/Renilla luciferase

Structure (SMILES)	IC50
CNc1nc(NCc2ccc(NC(=O)c3cc(F)ccc3C)cc2)c2ccccc2n1 [Example 1, 5-fluoro-2-methyl-N-[4-({[2-(methylamino)quinazolin-4-yl]amino}methyl)phenyl]benzamide]	> 6020 nM
CNc1nc(NCc2ccc(NC(=O)COCc3ccccc3)cc2)c2ccccc2n1 [Example 2, 2-(benzyloxy)-N-[4-({[2-(methylamino)quinazolin-4-yl]amino}methyl)phenyl]acetamide]	> 2920 nM
